Reference: patent US11338012B2, “BRAF-based polypeptides for treatment of cancer” (UNIVERSITY OF THE SCIENCES, priority 2019, dated 2022)
Where no end group is shown, it is not given here.

Key:
[1] = system: MAPK signaling in HEK293 cells overexpressing wild-type BRAF or BRAF^G469A; test: Cell-based synergy assay of TAT-braftide with ATP-competitive inhibitors in HEK293 cells overexpressing BRAF^WT or BRAF^G469A
Method: IC50 values were obtained from a dose-response curve (4-parameter logistic equation) in Origin, from three independent experiments. […] Western blots are representative of at least three independent experiments.
Cell lysates were subjected to immunoblotting for the indicated proteins.
HEK293 cells were plated at one million cells per 2 mL :DMEM supplemented with 10% FBS and 1% L-glutarnine. These cells were incubated at 37° C. with 5% CO2 for 24 hours or until the cells reach a confluency of 40-60%. DNA (1-3 μg) was mixed with PEI-MAX in a 1:3 ratio in Opti-MEM at RT for ˜25 minutes and added onto the cells with fresh media. After 48 hrs, the cells were washed with cold PBS, harvested, lysed with 4% SDS and homogenized. […] The cells were then washed twice with PBS, lysed as above and quantified with the BCA protein assay. Equal amounts of cell lysates were loaded for immunoblotting and then probed for relevant proteins. […] Cells were washed twice with PBS and processed as above. Protein concentrations were determined with BCA assays for immunoblotting.
The efficacy of current ATP-competitive BRAF inhibitors is limited to BRAF^V600E that signals as a monomer.

HCT-15 cells = test: WST cell viability assay, HCT-15; format: cell-based; conditions: 48 hr
Method: (§1) Western blots are representative of at least three independent experiments. […] Cell viability was determined through the WST assay according to manufacturer's instructions. IC50 values were obtained from a dose-response curve (4-parameter logistic equation) in Origin, from three independent experiments.
(§2) Cells were seeded onto poly-lysine coated, clear-bottomed, 96-well plates at 15000 cells per well. […] Upon 48 hr treatment, cell viability was determined through the WST cell viability assay. According to manufacturers' instructions, 10 μL of the WST reagent was added to each well and incubated at 37° C. for 4 hrs. Absorbance readings for the plate were then taken at 450 nm in a Biotek plate reader.

[2] = system: BRAF^WT/G469A kinase activity in HEK293 cells; test: Immunoblotting of HEK293 cells transiently transfected with BRAF^WT/G469A (pMEK, BRAF, MEK levels); format: cell-based; conditions: 0-100 μM, 4 hrs
Method: FIGS. 2A-2C illustrate TAT-tagged Braftide inhibits BRAF^WT/G469A kinase activity in HEK293 cells. HEK293 cells transiently transfected with BRAF^WT/G469A were treated with TAT-braftide or TAT peptide at the indicated concentrations (0, 10, 25, 50, 75, and 100 μM) for 4 hrs. Cell lysates were subjected to immunoblotting with the indicated antibodies: anti-BRAF, anti-pMEK, and anti-Actin. FIG. 2A illustrates effect of TAT-braftide on BRAF^WT/G469A kinase activity in HEK293 cells. FIG. 2B illustrates effect of TAT control peptide on BRAF^WT/G469A kinase activity in HEK293 cells. Western blots are representative of at least three independent experiments. The band intensities from the Western Blots were quantified in ImageJ. FIG. 2C illustrates confocal microscopy images of HEK293 cells treated with 25 μM braftide-Cy3 for 2 hr and stained with FLAG antibody for BRAF.
HEK293 cells were plated at one million cells per 2 mL :DMEM supplemented with 10% FBS and 1% L-glutarnine. These cells were incubated at 37° C. with 5% CO2 for 24 hours or until the cells reach a confluency of 40-60%. DNA (1-3 μg) was mixed with PEI-MAX in a 1:3 ratio in Opti-MEM at RT for ˜25 minutes and added onto the cells with fresh media. After 48 hrs, the cells were washed with cold PBS, harvested, lysed with 4% SDS and homogenized. For peptide assays, 48 hrs post-transfection, cells were treated with TAT-Braftide/TAT control in reduced serum media at the indicated concentrations for 4 hrs. The cells were then washed twice with PBS, lysed as above and quantified with the BCA protein assay. Equal amounts of cell lysates were loaded for immunoblotting and then probed for relevant proteins. […] Protein concentrations were determined with BCA assays for immunoblotting.
Braftide was conjugated with the TAT sequence ([…]; SEQ ID NO:2), a cell-penetrating peptide widely used in peptide drugs. […] The activity of BRAF was quantified by probing for phospho-MEK1/2. […] A Cy3-tagged version of braftide was synthesized and evaluated for its ability of crossing the plasma membrane using immunofluorescence experiments. […]

p61 BRAF^V600E = target: T1, p61 BRAF^V600E (Homo sapiens, UniProt P15056, DEL169-380/V600E); test: Immunoblotting of HEK293 cells transfected with p61-BRAF^V600E; format: cell-based; conditions: increasing concentrations, 4 hr
T1 construct: expressed in transfected cells; host or cells: HEK293
T1 sequence (P15056 with tags, fused parts or gaps DEL169-380/V600E): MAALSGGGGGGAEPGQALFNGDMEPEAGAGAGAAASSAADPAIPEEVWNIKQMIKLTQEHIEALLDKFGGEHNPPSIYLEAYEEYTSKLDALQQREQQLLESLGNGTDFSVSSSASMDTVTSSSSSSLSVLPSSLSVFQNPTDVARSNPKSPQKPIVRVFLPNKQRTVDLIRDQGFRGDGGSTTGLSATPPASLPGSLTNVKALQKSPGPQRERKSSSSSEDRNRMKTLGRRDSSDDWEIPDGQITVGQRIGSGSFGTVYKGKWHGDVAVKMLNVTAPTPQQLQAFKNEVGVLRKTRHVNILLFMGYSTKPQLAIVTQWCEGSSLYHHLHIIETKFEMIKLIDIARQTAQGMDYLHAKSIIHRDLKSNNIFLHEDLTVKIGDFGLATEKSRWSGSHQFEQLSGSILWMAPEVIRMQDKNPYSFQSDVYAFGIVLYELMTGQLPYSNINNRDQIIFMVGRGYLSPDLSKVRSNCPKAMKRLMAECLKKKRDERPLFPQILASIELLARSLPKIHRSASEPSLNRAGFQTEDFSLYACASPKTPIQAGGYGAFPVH

BRAF^WT in HEK293 cells = target: T2, BRAF^WT in HEK293 cells (Homo sapiens, UniProt P15056); test: BRAF degradation: bortezomib rescue and cycloheximide half-life in HEK293 cells; format: cell-based; conditions: pre-treated with 0.4 μM Bortezomib 5 hr, then 75 and 100 μM peptide 4 hr
T2 construct: expressed in transfected cells; host or cells: HEK293
T2 sequence (P15056 whole entry): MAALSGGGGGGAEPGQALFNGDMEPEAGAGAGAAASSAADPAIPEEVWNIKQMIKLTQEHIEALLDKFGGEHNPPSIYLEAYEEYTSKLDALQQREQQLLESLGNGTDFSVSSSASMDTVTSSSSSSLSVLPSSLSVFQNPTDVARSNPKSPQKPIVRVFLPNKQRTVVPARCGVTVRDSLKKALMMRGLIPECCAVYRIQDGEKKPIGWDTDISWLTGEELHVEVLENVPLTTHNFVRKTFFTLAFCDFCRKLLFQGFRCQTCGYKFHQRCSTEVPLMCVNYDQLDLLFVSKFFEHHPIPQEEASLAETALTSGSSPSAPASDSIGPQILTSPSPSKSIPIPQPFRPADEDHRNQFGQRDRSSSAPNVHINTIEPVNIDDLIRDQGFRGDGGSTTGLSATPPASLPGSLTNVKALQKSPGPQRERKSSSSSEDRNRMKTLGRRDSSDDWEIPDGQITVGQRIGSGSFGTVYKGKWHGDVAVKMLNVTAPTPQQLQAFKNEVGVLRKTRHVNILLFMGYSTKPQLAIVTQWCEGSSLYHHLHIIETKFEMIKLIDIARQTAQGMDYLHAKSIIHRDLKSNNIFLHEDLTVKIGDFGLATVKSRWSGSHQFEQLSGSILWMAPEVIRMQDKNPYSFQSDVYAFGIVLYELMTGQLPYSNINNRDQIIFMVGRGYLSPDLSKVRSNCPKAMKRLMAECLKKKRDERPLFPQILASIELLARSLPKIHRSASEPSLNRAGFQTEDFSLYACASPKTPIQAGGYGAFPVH
Method: FIG. 3B illustrates quantification of BRAF protein levels after rescue with Bortezomib. […] FIG. 3D illustrates quantification of the Western Blot to determine the half-life (t,1/2) of BRAF. Western blots are representative of at least three independent experiments.
HEK293 cells transiently transfected with wild-type BRAF were treated with cycloheximide.

HCT116 cells = test: WST cell viability assay, HCT116; format: cell-based; conditions: 48 hr
Method: as §1, §2

[3] = system: MAPK pathway in the HCT116 cell line; test: MAPK pathway inhibition in HCT116 cells (immunoblotting); format: cell-based; conditions: 0-75 μM, 4 hr; read-out: IC50 of MAPK pathway inhibition (phospho-MEK, phospho-ERK, degradation of endogenous BRAF and MEK)
Method: as §1

[4] = dabrafenib alone, wild-type BRAF, 1 hr

`CC(C)(C)c1nc(-c2cccc(NS(=O)(=O)c3c(F)cccc3F)c2F)c(-c2ccnc(N)n2)s1` [dabrafenib, N-{3-[5-(2-aminopyrimidin-4-yl)-2-tert-butyl-1,3-thiazol-4-yl]-2-fluorophenyl}-2,6-difluorobenzenesulfonamide] was tested, and the “concentration at which dabrafenib performed as an inhibitor” value [1, 4] was “above 10 μM” and the “effect on MAPK signaling at lower concentrations” value [1, 4] was “activated the MAPK signaling at lower concentrations”.

With `CCCS(=O)(=O)Nc1ccc(F)c(C(=O)c2c[nH]c3ncc(-c4ccc(Cl)cc4)cc23)c1F` [vemurafenib, N-(3-{[5-(4-Chlorophenyl)-1H-pyrrolo[2,3-b]pyridin-3-yl]carbonyl}-2,4-difluorophenyl)propane-1-sulfonamide] the synergy with braftide ([1]; braftide 75 μM 2 hr, then vemurafenib 1 hr) was “same synergy effect between vemurafenib and braftide was validated”.

In the case of “Braftide conjugated with the TAT sequence (GRKKRRQRRRPQ; SEQ ID NO:2), a cell-penetrating peptide (GRKKRRQRRRPQTRHVNILLFM; also: possible unspecified modification flagged (lipid/PEG, unknown token)) [TAT-braftide]”, the EC50 (HCT-15 cells; WST assay, read-out: EC50 of inhibition of cell growth, HCT-15) is reported as 9 µM, the “activity of BRAF (phospho-MEK1/2)” value [2] is reported as “significantly reduced the activity of BRAF in a dose-dependent manner” and the “protein levels of overexpressed BRAF and endogenous MEK1” value [2] is reported as “markedly decreased in a dose-dependent manner”. The “pMEK and pERK levels” value (p61 BRAF^V600E) was “A decrease in both pMEK and pERK levels was observed”, the “protein level of p61” value (p61 BRAF^V600E) was “not affected as dramatically as wild-type BRAF” and the “kinase activity of BRAF after proteasome inhibition” value (BRAF^WT in HEK293 cells) was “still successfully inhibited the kinase activity of BRAF”. The EC50 (HCT116 cells; WST assay, read-out: EC50 of inhibition of cell growth, HCT116) was 5 µM and the IC50 [3] was under 10 µM.

“GRKKRRQRRRPQ [TAT peptide, cell-penetrating peptide used as the negative control, reference compound]” was tested, and the “cell death, HCT-15” value (HCT-15 cells; at concentrations up to 100 μM) was “no cell death was observed”, the “activity of BRAF (phospho-MEK1/2)” value [2] was “no inhibition effect was observed” and the “cell death, HCT116” value (HCT116 cells; at concentrations up to 100 μM) was “no cell death was observed”.
